According to patent US10501479B2, “Benzenesulfonyl-asymmetric ureas and medical uses thereof” (HELSINN HEALTHCARE SA, priority 2016, dated 2019):
Like-named read-outs stand apart in the source and are kept apart here.

Legend:
Type in all cases: cell-based
[1] = molecular target: T1, GHSR-1a (HEK293/GHSR1a cell line) (Homo sapiens, UniProt Q92847); experiment: Ghrelin agonist potency (EC50) with calcium FLIPR assay
T1 construct: expressed in transfected cells; host or cells: HEK293/GHSR1a cell line
Outline: (§1)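 Dye preload 30-60 min, RT or 37° C; compound in DMSO. Agonist mode: compound at t=20 sec, Ca2+ read 2 min. Antagonist mode: compound + ghrelin 10 nM at t=20 sec, 2 min read. EC50/IC50 from dose-response curves.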

[2] = molecular target: T1, GHSR-1a (HEK293/GHSR1a cell line); experiment: Ghrelin antagonist potency (IC50) with calcium FLIPR assay, ghrelin 10 nM
Outline: as §1

[3] = molecular target: T2, recombinant human ghrelin receptor (HEK293/GRLN) (Homo sapiens, UniProt Q92847); experiment: Ghrelin inverse agonist potency (EC50) with IP-1 (IP-One HTRF) assay; conditions: IP-1 assay
T2 construct: expressed in transfected cells
Outline: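 HEK293/GRLN cells were seeded 18-22 hours before the test, then exposed to compound in stimulation buffer for 1 hour at 37° C, 5% CO2. IP-1 was detected by IP-One HTRF (IP1-d2 plus Tb-cryptate, 1 hour RT), reading 620 and 665 nm; the inverse agonist EC50 was derived from this.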

[4] = HEK293/GHSR1a, read-out: Activity EC50/EMax: EC50 (ghrelin agonist potency)
[5] = HEK293/GHSR1a, ghrelin 10 nM, read-out: Activity IC50 (ghrelin antagonist potency)
[6] = HEK293/GRLN, read-out: Activity EC50 (ghrelin inverse agonist potency)
[7] = ghrelin agonist potency, read-out: Activity EC50/EMax
[8] = ghrelin antagonist potency, read-out: Activity IC50
[9] = ghrelin inverse agonist potency, read-out: Activity EC50

T2 sequence (Q92847 whole entry): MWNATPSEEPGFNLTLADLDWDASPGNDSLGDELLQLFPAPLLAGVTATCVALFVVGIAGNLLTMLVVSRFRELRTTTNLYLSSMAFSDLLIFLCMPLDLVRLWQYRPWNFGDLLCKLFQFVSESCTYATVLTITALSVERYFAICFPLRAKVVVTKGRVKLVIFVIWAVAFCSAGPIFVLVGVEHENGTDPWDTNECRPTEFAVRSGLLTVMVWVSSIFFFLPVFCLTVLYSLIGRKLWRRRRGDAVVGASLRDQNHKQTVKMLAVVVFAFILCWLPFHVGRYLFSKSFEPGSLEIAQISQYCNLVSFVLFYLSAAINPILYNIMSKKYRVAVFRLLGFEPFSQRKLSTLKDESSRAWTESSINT
T1 sequence (Q92847 whole entry): as above

In the case of `CC(NC(=O)Nc1ccc(S(=O)(=O)Cc2ccc3c(c2)CNC3)cc1)c1cc(N2CCOCC2)ccc1Cl` (stereo not drawn) [H1283, 1-(1-(2-chloro-5-morpholinophenyl)ethyl)-3-(4-((isoindolin-5-ylmethyl)sulfonyl)phenyl)urea], the EC50 [1, 4] is reported as > 30000 nM, the IC50 [2, 5] is reported as 379 nM and the EC50 [3, 6] is reported as 201 nM.
For `CC(NC(=O)Nc1ccc(S(=O)(=O)Cc2ccc3c(c2)CNC3)cc1CO)c1ccccc1` (stereo not drawn) [H1467, 1-(2-(hydroxymethyl)-4-((isoindolin-5-ylmethyl)sulfonyl)phenyl)-3-(1-phenylethyl)urea], the EC50 [1, 7] was > 30000 nM, the IC50 [2, 8] was 121 nM and the EC50 [3, 9] was 19.7 nM.
For `CC(NC(=O)Nc1ccc(S(=O)(=O)Cc2ccc(CN3CCOCC3)cc2)cc1)c1ccccc1` (stereo not drawn) [H1275, 1-(4-((4-(morpholinomethyl)benzyl)sulfonyl)phenyl)-3-(1-phenylethyl)urea], the EC50 [1, 4] was > 30000 nM, the IC50 [2, 5] was 1020 nM and the EC50 [3, 6] was 310 nM.
For `CC(NC(=O)Nc1ccc(S(=O)(=O)Cc2ccc3c(c2)CNC3)cc1-c1cn[nH]c1)c1ccccc1` (stereo not drawn) [H1532, 1-(4-((isoindolin-5-ylmethyl)sulfonyl)-2-(1H-pyrazol-4-yl)phenyl)-3-(1-phenylethyl)urea], the EC50 [1, 7] was > 30000 nM, the IC50 [2, 8] was 1660 nM and the EC50 [3, 9] was 69.5 nM.
`COc1cc(S(=O)(=O)Cc2nc3c(s2)CN(C)C3)ccc1NC(=O)N[C@@H](C)c1ccccc1` [H1464, (S)-1-(2-methoxy-4-(((5-methyl-5,6-dihydro-4H-pyrrolo[3,4-d]thiazol-2-yl)methyl)sulfonyl)phenyl)-3-(1-phenylethyl)urea] was tested, and the EC50 [1, 7] was > 30000 nM, the IC50 [2, 8] was 2960 nM and the EC50 [3, 9] was 290 nM.
`CC(=O)N1CC(NC(=O)Nc2ccc(S(=O)(=O)Cc3ccc4c(c3)CNC4)cc2)c2ccccc21` (stereo not drawn) [H1353, 1-(1-acetylindolin-3-yl)-3-(4-((isoindolin-5-ylmethyl)sulfonyl)phenyl)urea] was tested, and the EC50 [1, 4] was > 30000 nM, the IC50 [2, 5] was 5100 nM and the EC50 [3, 6] was 8230 nM.
For `CC(NC(=O)Nc1ccc(S(=O)(=O)Cc2ccc3c(c2)CN(C)C3)cc1)c1ccccn1` (stereo not drawn) [H1307, 1-(4-(((2-methylisoindolin-yl)methyl)sulfonyl)phenyl)-3-(1-(pyridin-2-yl)ethyl)urea], the EC50 [1, 4] was > 30000 nM, the IC50 [2, 5] was 2300 nM and the EC50 [3, 6] was 935 nM.
In the case of `COc1cc(S(=O)(=O)Cc2ccc3c(c2)CCNC3)ccc1NC(=O)N(C)C(C)c1ccccc1` (stereo not drawn) [H1413, 3-(2-methoxy-4-(((1,2,3,4-tetrahydroisoquinolin-6-yl)methyl)sulfonyl)phenyl)-1-methyl-1-(1-phenylethyl)urea], the EC50 [1, 4] is reported as > 30000 nM, the IC50 [2, 5] is reported as 681 nM and the EC50 [3, 6] is reported as 225 nM.
In the case of `CC(NC(=O)Nc1ccc(S(=O)(=O)Cc2ccc3c(c2)CNC3)cc1)c1ccncc1` (stereo not drawn) [H1274, 1-(4-((isoindolin-5-ylmethyl)sulfonyl)phenyl)-3-(1-(pyridin-4-yl)ethyl)urea], the EC50 [1, 4] is reported as > 30000 nM, the IC50 [2, 5] is reported as 1580 nM and the EC50 [3, 6] is reported as 685 nM.
`CC(NC(=O)Nc1ccc(S(=O)(=O)Cc2ccc3c(c2)CN(C)C3)cc1)c1cc(N2CCOCC2)ccc1Cl` (stereo not drawn) [H1284, 1-(1-(2-chloro-5-morpholinophenyl)ethyl)-3-(4-(((2-methylisoindolin-5-yl)methyl)sulfonyl)phenyl)urea] was tested, and the EC50 [1, 4] was > 30000 nM, the IC50 [2, 5] was 1900 nM and the EC50 [3, 6] was 371 nM.
For `COc1cc(S(=O)(=O)Cc2ccc3c(c2)CCNC3)ccc1NC(=O)N(C)C(C)c1cccc(Cl)c1Cl` (stereo not drawn) [H1443, 1-(1-(2,3-dichlorophenyl)ethyl)-3-(2-methoxy-4-(((1,2,3,4-tetrahydroisoquinolin-6-yl)methyl)sulfonyl)phenyl)-1-methylurea], the EC50 [1, 4] was > 30000 nM, the IC50 [2, 5] was 68 nM and the EC50 [3, 6] was 85.8 nM.
With `CC(NC(=O)Nc1ccc(S(=O)(=O)Cc2ccc3c(c2)CNC3)cc1)c1cccnc1` (stereo not drawn) [H1273, 1-(4-((isoindolin-5-ylmethyl)sulfonyl)phenyl)-3-(1-(pyridin-3-yl)ethyl)urea] the EC50 [1, 4] was > 30000 nM, the IC50 [2, 5] was 1030 nM and the EC50 [3, 6] was 192 nM.
`CC(NC(=O)Nc1ccc(S(=O)(=O)Cc2ccc3c(c2)C(F)(F)CN(C)C3)cc1)c1ccccc1` (stereo not drawn) [H1546, 1-(4-(((4,4-difluoro-2-methyl-1,2,3,4-tetrahydroisoquinolin-6-yl)methyl)sulfonyl)phenyl)-3-(1-phenylethyl)urea] was tested, and the EC50 [1, 7] was > 30000 nM, the IC50 [2, 8] was 1080 nM and the EC50 [3, 9] was 126 nM.
With `O=C(NCC1COc2ccccc2O1)Nc1ccc(S(=O)(=O)Cc2ccc3c(c2)CNC3)cc1` (stereo not drawn) [H1483, 1-((2,3-dihydrobenzo[b][1,4]dioxin-2-yl)methyl)-3-(4-((isoindolin-5-ylmethyl)sulfonyl)phenyl)urea] the EC50 [1, 7] was > 30000 nM, the IC50 [2, 8] was 53.8 nM and the EC50 [3, 9] was 24.1 nM.
In the case of `COc1ccc(C(C)NC(=O)Nc2ccc(S(=O)(=O)Cc3ccc4c(c3)CCN(C)C4)cc2OC)cc1` (stereo not drawn) [H1442, 1-(2-methoxy-4-(((2-methyl-1,2,3,4-tetrahydroisoquinolin-6-yl)methyl)sulfonyl)phenyl)-3-(1-(4-methoxyphenyl)ethyl)urea], the EC50 [1, 4] is reported as > 30000 nM, the IC50 [2, 5] is reported as 58.1 nM and the EC50 [3, 6] is reported as 16.4 nM.
For `C[C@@H](NC(=O)Nc1ccc(S(=O)(=O)Cc2ccc3c(c2)C(F)CNC3)cc1)c1ccccc1` (stereo partly drawn) [H1540, 1-(4-(((4-fluoro-1,2,3,4-tetrahydroisoquinolin-6-yl)methyl)sulfonyl)phenyl)-3-((R)-1-phenylethyl)urea], the EC50 [1, 7] was > 30000 nM, the IC50 [2, 8] was 7440 nM and the EC50 [3, 9] was 206 nM.
For `O=C(Nc1ccc(S(=O)(=O)Cc2ccc3c(c2)CNC3)cc1)NC1COc2ccccc21` (stereo not drawn) [H1330, 1-(2,3-dihydrobenzofuran-3-yl)-3-(4-((isoindolin-5-ylmethyl)sulfonyl)phenyl)urea], the EC50 [1, 4] was > 30000 nM, the IC50 [2, 5] was 147 nM and the EC50 [3, 6] was 142 nM.
With `CC(NC(=O)Nc1ccc(S(=O)(=O)Cc2ccc3c(c2)CNC3)cc1C(=O)O)c1cccc(Cl)c1Cl` (stereo not drawn) [H1549, 2-(3-(1-(2,3-dichlorophenyl)ethyl)ureido)-5-((isoindolin-5-ylmethyl)sulfonyl)benzoic acid] the EC50 [1, 7] was > 30000 nM, the IC50 [2, 8] was 1.69 nM and the EC50 [3, 9] was 1.2 nM.
`CC1c2ccccc2CCN1C(=O)Nc1ccc(S(=O)(=O)Cc2ccc3c(c2)CN(C)C3)cc1` (stereo not drawn) [H1418, 1-methyl-N-(4-(((2-methylisoindolin-5-yl)methyl)sulfonyl)phenyl)-3,4-dihydroisoquinoline-2(1H)-carboxamide] was tested, and the EC50 [1, 4] was > 30000 nM, the IC50 [2, 5] was 2700 nM and the EC50 [3, 6] was 69.5 nM.
`CC(NC(=O)Nc1ccc(S(=O)(=O)Cc2cc3c(c(C(F)(F)F)c2)CNCC3)cc1F)c1cccc(Cl)c1Cl` (stereo not drawn) [H1400, 1-(1-(2,3-dichlorophenyl)ethyl)-3-(2-fluoro-4-(((8-(trifluoromethyl)-1,2,3,4-tetrahydroisoquinolin-6-yl)methyl)sulfonyl)phenyl)urea] was tested, and the EC50 [1, 4] was > 30000 nM, the IC50 [2, 5] was 70.5 nM and the EC50 [3, 6] was 15.4 nM.
With `COc1cc(S(=O)(=O)Cc2ccc3c(c2)CC(C)N(C)C3)ccc1NC(=O)NC(C)c1ccccc1` (stereo not drawn) [H1440, 1-(4-(((2,3-dimethyl-1,2,3,4-tetrahydroisoquinolin-6-yl)methyl)sulfonyl)-2-methoxyphenyl)-3-(1-phenylethyl)urea] the EC50 [1, 4] was > 30000 nM, the IC50 [2, 5] was 4.4 nM and the EC50 [3, 6] was 2.9 nM.
In the case of `CC(NC(=O)Nc1ccc(S(=O)(=O)Cc2ccc3c(c2)CNC3)cn1)c1ccccc1` (stereo not drawn) [H1408, 1-(5-((isoindolin-5-ylmethyl)sulfonyl)pyridin-2-yl)-3-(1-phenylethyl)urea], the EC50 [1, 4] is reported as > 30000 nM, the IC50 [2, 5] is reported as 162 nM and the EC50 [3, 6] is reported as 36 nM.
For `CC(NC(=O)Nc1ccc(S(=O)(=O)Cc2ccc3c(c2)CNC3)cc1-c1ccnn1C)c1ccccc1` (stereo not drawn) [H1528, 1-(4-((isoindolin-5-ylmethyl)sulfonyl)-2-(1-methyl-1H-pyrazol-5-yl)phenyl)-3-(1-phenylethyl)urea], the EC50 [1, 7] was > 30000 nM, the IC50 [2, 8] was 581 nM and the EC50 [3, 9] was 83.3 nM.
In the case of `CC(NC(=O)Nc1ccc(S(=O)(=O)Cc2cc(Cl)c3c(c2)CNC3)cc1)c1ccccc1` (stereo not drawn) [H1405, 1-(4-(((7-chloroisoindolin-5-yl)methyl)sulfonyl)phenyl)-3-(1-phenylethyl)urea], the EC50 [1, 4] is reported as > 30000 nM, the IC50 [2, 5] is reported as 1860 nM and the EC50 [3, 6] is reported as 90 nM.
For `CC(NC(=O)Nc1ccc(S(=O)(=O)Cc2ccc(CO)cc2)cc1)c1cccc(Cl)c1Cl` (stereo not drawn) [H1430, 1-(1-(2,3-dichlorophenyl)ethyl)-3-(4-((4-(hydroxymethyl)benzyl)sulfonyl)phenyl)urea], the EC50 [1, 4] was > 30000 nM, the IC50 [2, 5] was 2470 nM and the EC50 [3, 6] was 56.4 nM.
`COc1c(CS(=O)(=O)c2ccc(NC(=O)NC(C)c3cccc(Cl)c3Cl)cc2)ccc2c1CCN(C)C2` (stereo not drawn) [H1369, 1-(1-(2,3-dichlorophenyl)ethyl)-3-(4-(((5-methoxy-2-methyl-1,2,3,4-tetrahydroisoquinolin-6-yl)methyl)sulfonyl)phenyl)urea] was tested, and the EC50 [1, 4] was > 30000 nM, the IC50 [2, 5] was 3.66 nM and the EC50 [3, 6] was 1.1 nM.
With `CC(NC(=O)Nc1ccc(S(=O)(=O)Cc2ccc3c(c2)CNC3)cc1F)c1c(F)cccc1F` (stereo not drawn) [H1411, 1-(1-(2,6-difluorophenyl)ethyl)-3-(2-fluoro-4-((isoindolin-5-ylmethyl)sulfonyl)phenyl)urea] the EC50 [1, 4] was > 30000 nM, the IC50 [2, 5] was 124 nM and the EC50 [3, 6] was 17.8 nM.
`CC(NC(=O)Nc1ccc(S(=O)(=O)Cc2cc3c(cc2F)CN(C)CC3)cc1)c1cccc(Cl)c1Cl` (stereo not drawn) [H1366, 1-(1-(2,3-dichlorophenyl)ethyl)-3-(4-(((7-fluoro-2-methyl-1,2,3,4-tetrahydroisoquinolin-6-yl)methyl)sulfonyl)phenyl)urea] was tested, and the EC50 [1, 4] was > 30000 nM, the IC50 [2, 5] was 21.5 nM and the EC50 [3, 6] was 2.5 nM.
